Laboratory results as given in patent US9468661B2, “Pyrrolidine derivatives and their use as complement pathway modulators” (priority 2012, dated 2016).
Like-named read-outs stand apart in the source and are kept apart here.

Biological target: human factor D (Homo sapiens (Human), UniProt P00746)
Experiment: biochemical
Format: biochemical
Settings: recombinant human factor D 10 nM, substrate Z-Lys-thiobenzyl, fluorescence
Method: Human Complement Factor D Assay: Method 1
Recombinant human factor D (expressed in E. coli and purified using standard methods) at 10 nM concentration is incubated with test compound at various concentrations for 1 hour at room temperature in 0.1 M Hepes buffer, pH 7.5, containing 1 mM MgCl2, 1 M NaCl and 0.05% CHAPS. A synthetic substrate Z-Lys-thiobenzyl and 2,4-dinitrobenzenesulfonyl-fluoresceine are added to final concentrations of 200 μM and 25 μM, respectively. The increase in fluorescence is recorded at excitation of 485 nm and emission at 535 nm in a microplate spectrofluorimeter. IC50 values are calculated from percentage of inhibition of complement factor D-activity as a function of test compound concentration.

[1] = Factor D inhibition data using Method 1, read-out: IC50

Chain of human factor D (P00746 26-253): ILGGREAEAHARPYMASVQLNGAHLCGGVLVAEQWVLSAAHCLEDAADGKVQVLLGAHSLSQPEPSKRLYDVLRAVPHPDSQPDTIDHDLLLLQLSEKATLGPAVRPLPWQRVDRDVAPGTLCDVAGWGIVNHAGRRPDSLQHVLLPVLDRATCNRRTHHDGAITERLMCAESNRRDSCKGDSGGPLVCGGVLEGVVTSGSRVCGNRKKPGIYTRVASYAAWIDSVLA

SMILES	IC50 [1] [nM]	IC50 (IC50, Factor D inhibition data using Method 1) [nM]
CC(=O)c1nn(CC(=O)N2[C@@H]3C[C@@H]3C[C@H]2C(=O)NCC2CC(C)C2)c2cnccc12 (stereo partly drawn) [Example 7, (1R,3S,5R)-2-[2-(3-Acetyl-pyrazolo[3,4-c]pyridin-1-yl)-acetyl]-2-aza-bicyclo[3.1.0] hexane-3-carboxylic acid (3-methyl-cyclobutylmethyl)-amide]	259	
CC(=O)c1nn(CC(=O)N2[C@@H]3C[C@@H]3C[C@H]2C(=O)NCC2CC3(CC3)C2)c2cnccc12 [Example 8, (1R,3S,5R)-2-[2-(3-Acetyl-pyrazolo[3,4-c]pyridin-1-yl)-acetyl]-2-aza-bicyclo[3.1.0] hexane-3-carboxylic acid (spiro[2.3]hex-5-ylmethyl)-amide]	498	
CC(=O)c1nn(CC(=O)N2[C@@H]3C[C@@H]3C[C@H]2C(=O)N[C@H](CO)C2CCCCC2)c2cnccc12 [Example 9, (1R,3S,5R)-2-[2-(3-Acetyl-pyrazolo[3,4-c]pyridin-1-yl)-acetyl]-2-aza-bicyclo[3.1.0] hexane-3-carboxylic acid ((S)-1-cyclohexyl-2-hydroxy-ethyl)-amide]	469	
CCC1(CC)CC1CNC(=O)[C@@H]1C[C@H]2C[C@H]2N1C(=O)Cn1nc(C(C)=O)c2cccnc21 (stereo partly drawn) [Example 10, (1R,3S,5R)-2-[2-(3-Acetyl-pyrazolo[3,4-b]pyridin-1-yl)-acetyl]-2-aza-bicyclo[3.1.0] hexane-3-carboxylic acid (2,2-diethyl-cyclopropylmethyl)-amide]	1420	
CC(=O)c1nn(CC(=O)N2[C@@H]3C[C@@H]3C[C@H]2C(=O)NCC2CC2(Cl)Cl)c2ncccc12 (stereo partly drawn) [Example 11, (1R,3S,5R)-2-[2-(3-Acetyl-pyrazolo[3,4-b]pyridin-1-yl)-acetyl]-2-aza-bicyclo[3.1.0] hexane-3-carboxylic acid (2,2-dichloro-cyclopropylmethyl)-amide]	163	
CC(=O)c1nn(CC(=O)N2[C@@H]3C[C@@H]3C[C@H]2C(=O)NCC2CC2(C)C)c2ncccc12 (stereo partly drawn) [Example 12, (1R,3S,5R)-2-[2-(3-Acetyl-pyrazolo[3,4-b]pyridin-1-yl)-acetyl]-2-aza-bicyclo[3.1.0] hexane-3-carboxylic acid (2,2-dimethyl-cyclopropylmethyl)-amide]	1410	
CC(=O)c1nn(CC(=O)N2[C@@H]3C[C@@H]3C[C@H]2C(=O)NCC2(C)CC2(Cl)Cl)c2cnccc12 (stereo partly drawn) [Example 13, (1R,3S,5R)-2-[2-(3-Acetyl-pyrazolo[3,4-c]pyridin-1-yl)-acetyl]-2-aza-bicyclo[3.1.0] hexane-3-carboxylic acid (2,2-dichloro-1-methyl-cyclopropylmethyl)-amide]	958	
CC(=O)c1nn(CC(=O)N2[C@@H]3C[C@@H]3C[C@H]2C(=O)NCC2CCCC(C(F)(F)F)C2)c2cnccc12 (stereo partly drawn) [Example 14, (1R,3S,5R)-2-[2-(3-Acetyl-pyrazolo[3,4-c]pyridin-1-yl)-acetyl]-2-aza-bicyclo[3.1.0] hexane-3-carboxylic acid (3-trifluoromethyl-cyclohexylmethyl)-amide]	334	
CC(=O)c1nn(CC(=O)N2[C@@H]3C[C@@H]3C[C@H]2C(=O)NC2(C3CCCCC3)CC2)c2cnccc12 [Example 15, (1R,3S,5R)-2-[2-(3-Acetyl-pyrazolo[3,4-c]pyridin-1-yl)-acetyl]-2-aza-bicyclo[3.1.0] hexane-3-carboxylic acid (1-cyclohexyl-cyclopropyl)-amide]	358	
NC(=O)n1cc(NC(=O)N2[C@@H]3C[C@@H]3C[C@H]2C(=O)NCC2CCCCC2)c2ccccc21 [Example 25, (1R,3S,5R)-2-Aza-bicyclo[3.1.0]hexane-2,3-dicarboxylic acid 2-[(1-carbamoyl-1H-indol-3-yl)-amide]3-cyclohexylmethyl-amide]	257	
NC(=O)n1cc(NC(=O)N2[C@@H]3C[C@@H]3C[C@H]2C(=O)NCC2CC=CCC2)c2ccccc21 (stereo partly drawn) [Example 26, (1R,3S,5R)-2-Aza-bicyclo[3.1.0]hexane-2,3-dicarboxylic acid 2-[(1-carbamoyl-1H-indol-3-yl)-amide] 3-[(cyclohex-3-enylmethyl)-amide]]	305	
CC1(C)[C@H](CNC(=O)[C@@H]2C[C@H]3C[C@H]3N2C(=O)Nc2cn(C(N)=O)c3ccccc23)C1(Cl)Cl [Example 27, (1R,3S,5R)-2-Aza-bicyclo[3.1.0]hexane-2,3-dicarboxylic acid 2-[(1-carbamoyl-1H-indol-3-yl)-amide] 3-[((R)-2,2-dichloro-3,3-dimethyl-cyclopropylmethyl)-amide]]	19	
C[C@@H](NC(=O)[C@@H]1C[C@H]2C[C@H]2N1C(=O)Nc1cn(C(N)=O)c2ccccc12)C1CCCCC1 [Example 28, (1R,3S,5R)-2-Aza-bicyclo[3.1.0]hexane-2,3-dicarboxylic acid 2-[(1-carbamoyl-1H-indol-3-yl)-amide] 3-[((R)-1-cyclohexyl-ethyl)-amide]]	78	
CC1CCCC(CNC(=O)[C@@H]2C[C@H]3C[C@H]3N2C(=O)Nc2cn(C(N)=O)c3ccccc23)C1 (stereo partly drawn) [Example 29, (1R,3S,5R)-2-Aza-bicyclo [3.1.0]hexane-2,3-dicarboxylic acid 2-[(1-carbamoyl-1H-indol-3-yl)-amide] 3-[(3-methyl-cyclohexylmethyl)-amide]]	46	
[2H]C([2H])([2H])[C@@H](NC(=O)[C@@H]1C[C@H]2C[C@H]2N1C(=O)Nc1cn(C(N)=O)c2ccccc12)[C@H]1CC1(Cl)Cl [Example 30, (1R,3S,5R)-2-Aza-bicyclo [3.1.0]hexane-2,3-dicarboxylic acid 2-[(1-carbamoyl-1H-indol-3-yl)-amide] 3-{[(R)-1-((R)-2,2-dichloro-cyclopropyl)-ethyl-2,2,2-D3]-amide}]	15	
NC(=O)c1nn(CC(=O)N2[C@@H]3C[C@@H]3C[C@H]2C(=O)NC[C@H]2CC2(Cl)Cl)c2ccccc12 [Example 31, 1-(2-{(1R,3S,5R)-3-[((R)-2,2-Dichloro-cyclopropylmethyl)-carbamoyl]-2-aza-bicyclo[3.1.0]hex-2-yl}-2-oxo-ethyl)-1H-indazole-3-carboxylic acid amide]	32	
CC(=O)c1nn(CC(=O)N2[C@@H]3C[C@@H]3C[C@H]2C(=O)N[C@H](C)[C@H]2CC2(Cl)Cl)c2ccc(OCc3ncccn3)cc12 [Example 32, (1R,3S,5R)-2-{2-[3-Acetyl-5-(pyrimidin-2-ylmethoxy)-indazol-1-yl]-acetyl}-2-aza-bicyclo[3.1.0]hexane-3-carboxylic acid [(R)-1-((R)-2,2-dichloro-cyclopropyl)-ethyl]-amide-Dia 1]		6
C[C@@H](NC(=O)[C@@H]1C[C@H]2C[C@H]2N1C(=O)Cn1nc(C(N)=O)c2ccccc21)[C@H]1CC1(Cl)Cl [Example 36, 1-(2-{(1R,3S,5R)-3-[(R)-1-((R)-2,2-Dichloro-cyclopropyl)-ethylcarbamoyl]-2-aza-bicyclo[3.1.0]hex-2-yl}-2-oxo-ethyl)-1H-indazole-3-carboxylic acid amide]	25	
C[C@@H](NC(=O)[C@@H]1C[C@H]2C[C@H]2N1C(=O)Cn1nc(C(N)=O)c2ccncc21)[C@H]1CC1(Cl)Cl [Example 37, 1-(2-{(1R,3S,5R)-3-[(R)-1-((R)-2,2-Dichloro-cyclopropyl)-ethylcarbamoyl]-2-aza-bicyclo[3.1.0]hex-2-yl}-2-oxo-ethyl)-1H-pyrazolo[3,4-c]pyridine-3-carboxylic acid amide]	11	
Cc1cc2c(C(N)=O)nn(CC(=O)N3[C@@H]4C[C@@H]4C[C@H]3C(=O)N[C@H](C)[C@H]3CC3(Cl)Cl)c2cn1 [Example 38, 1-(2-{(1R,3S,5R)-3-[(R)-1-((R)-2,2-Dichloro-cyclopropyl)-ethylcarbamoyl]-2-aza-bicyclo[3.1.0]hex-2-yl}-2-oxo-ethyl)-5-methyl-1H-pyrazolo[3,4-c] pyridine-3-carboxylic acid amide]	40	
CCc1cc2c(C(N)=O)nn(CC(=O)N3[C@@H]4C[C@@H]4C[C@H]3C(=O)N[C@H](C)[C@H]3CC3(Cl)Cl)c2cn1 [Example 39, 1-(2-{(1R,3S,5R)-3-[(R)-1-((R)-2,2-Dichloro-cyclopropyl)-ethylcarbamoyl]-2-aza-bicyclo[3.1.0]hex-2-yl}-2-oxo-ethyl)-5-ethyl-1H-pyrazolo[3,4-c] pyridine-3-carboxylic acid amide]	27	
NC(=O)c1nn(CC(=O)N2[C@@H]3C[C@@H]3C[C@H]2C(=O)NC[C@H]2CC2(Cl)Cl)c2ccc(OCc3nccs3)cc12 [Example 40, 1-(2-{(1R,3S,5R)-3-[((R)-2,2-Dichloro-cyclopropylmethyl)-carbamoyl]-2-aza-bicyclo[3.1.0]hex-2-yl}-2-oxo-ethyl)-5-(thiazol-2-ylmethoxy)-1H-indazole-3-carboxylic acid amide]	7	
CO[C@H]1[C@@H](C(=O)NC[C@H]2CC2(Cl)Cl)N(C(=O)Cn2nc(C(N)=O)c3ccc(Cl)cc32)C[C@@H]1F [Example 41, 6-Chloro-1-(2-{(2S,3S,4S)-2-[((R)-2,2-dichloro-cyclopropylmethyl)-carbamoyl]-4-fluoro-3-methoxy-pyrrolidin-1-yl}-2-oxo-ethyl)-1H-indazole-3-carboxylic acid amide]	51	
CO[C@H]1[C@@H](C(=O)NC[C@H]2CC2(Cl)Cl)N(C(=O)Cn2nc(C(N)=O)c3ccccc32)C[C@@H]1F [Example 42, 1-(2-{(2S,3S,4S)-2-[((R)-2,2-Dichloro-cyclopropylmethyl)-carbamoyl]-4-fluoro-3-methoxy-pyrrolidin-1-yl}-2-oxo-ethyl)-1H-indazole-3-carboxylic acid amide]	112	
